Entries after “also recorded” stand apart in the source; their conditions may differ. In the oligonucleotide strings, read from the 5' end, every base follows the letter of its sugar. An asterisk marks phosphorothioate; unmarked linkages are phosphodiester. Other units and linkages are bracketed, terminal groups are in braces. A string of capitals states the bases alone. d = 2'-deoxy (DNA)

One data set relates to CD4+ Treg cells. Nature of the data set: Pretreatment of Treg cells, then proliferation assay with naive CD4+ T cells (without DCs). To be noted: Treg cells pretreated 3 days, washed, then mixed with naive CD4+ T cells. Format: cell-based, human. How it is done:
C. Pretreatment of Treg cells: 1×10^6 Treg cells were cultured in medium containing CpG-A (3 ug/ml), CpG-B (3 ug/ml), LPS (100 ng/ml), TNF.-α (20 ng/ml), IFN-α (100 ng/ml) or IL-6 (100 ng/ml) for 3 days. After three washes, the pretreated Treg cells were cultured with näive CD4^+ T cells in anti-CD3 mAb-coated plates (without DCs) to determine their suppressive function. After 56 h of culture, [3H]thymidine was added at a final concentration of 1 uCi/well, and cultured for an additional 16 h. The incorporation of [^3H]thymidine was measured with a liquid scintillation counter.
To exclude the possibility that the purified naive CD4^+ T cells might have been contaminated with a small number of monocytes or DCs, cultured CD4^+ Treg cells (100% purity) were pretreated with CpG-A (SEQ ID NO: 1) for 3 days. After three washes, the pretreated CD4^+ Treg cells were mixed with naive CD4^+ T cells in anti-CD3 antibody-coated plates to evaluate their ability to suppress the proliferation of naive CD4^+ T cells.
To determine whether the CpG motif in CpG A confers the ability to reverse the suppressive function of CD4^+ Treg cells, CD4^+ Treg cell lines were pretreated for 3 days with CpG-A (SEQ ID NO: 1), non-CpG-A (CG changed to GC in CpG-A; SEQ ID NO: 3), CpG B (SEQ ID NO: 2) or non-CpG-B (CG changed to GC in CpG-B; SEQ ID NO: 4), and used them in proliferation assays following extensive washes.
Treg cells were pretreated with Poly-G2 (SEQ ID NO: 15) in different concentrations of chloroquine to examine whether acidification is required for the function of guanosine containing oligonucleotides. After extensive washes, the pretreated Treg cells were used for functional assays.
Consider “CpG-B: CpG-B oligonucleotide, ligand for TLR9 (DNA GGGGGAGCATGCTGCGGGGG; listed as DNA, chemistry not given here)”, for which the “reversal of suppressive function of CD4+ Treg cells after pretreatment” value is reported as “lacked any discernible effect”.
On the same count and under the same terms, as for “non-CpG-B: CG changed to GC in CpG-B (DNA TGCTGCTTTTGTGCTTTTGTGCTT; listed as DNA, chemistry not given here)”, the entry is “lacked any discernible effect”.

Still in this data set, the particulars now being: pretreatment together with chloroquine.
With “Poly-G2: guanosine containing oligonucleotide (DNA AAGGA; listed as DNA, chemistry not given here)”, the “reversal effect with Treg cells pretreated in different concentrations of chloroquine” value is on record as “decreased with increasing concentrations of chloroquine”.

For the next data set, the system named is antigen-specific Treg102 and Treg164 cells. The data set is described as follows: TLR ligand assays: reversal of Treg suppression of naive CD4+ T cell proliferation. To be noted: Treg102, Treg164 or naturally occurring CD4+CD25+ Treg cells (FIG. 4A-B). Format: cell-based, human. How it is done:
Näive CD4 T+cells were purified from PBMCs by using microbeads (Miltenvi Biotec). Näive CD4^+ T cells ([…]) were cultured with regulatory T cells at a ratio of 10:1 in OKT3 (2 ug/ml)-coated, U bottomed 96-well plates containing the following ligands: LPS (100 ng/ml), imiquimod (10 μg/ml), loxoribine (500 μM), poly(I:C) (25 μg/ml), ssRNA40/LyoVec (3 μg/ml), ssRNA33/LyoVec (3 μg/ml), pam3CSK4 (200 ng/ml) and flagellin (10 μg/ml) were purchased from Invivogene (San Diego, Calif.), while CpG-A (3 μg/ml), CpG-B (3 μg/ml) and Poly-G oligonucleotides (3 μg/ml) were synthesized in Integrated DNA Technologies, Inc (Coralville, Iowa). Functional assays were identical to those described above.
If the TLR8-MyD88-IRAK4 signaling pathway is necessary and sufficient for direct reversal of the suppressive function of Treg cells, it should be possible to produce that effect with natural ligands for human TLR8. For FIG. 4A-B, naive CD4^+ T cells were mixed with Treg102, Treg164 or naturally occurring CD4^+ CD25^+ Treg cells in anti-CD3 antibody-coated wells in the presence of different TLR ligands. Data are presented as means±SD and represent results from three independent experiments.
With `C=CCn1c(=O)n([C@@H]2O[C@H](CO)[C@@H](O)[C@H]2O)c2nc(N)[nH]c(=O)c21` [loxoribine], the “restoration of proliferation of naive CD4+ T cells in the presence of Treg cells” value is on record as “failed to restore the proliferation of naive CD4^+ T cells”.
The same measure, in the same setting: in the case of “CpG-B: CpG-B oligonucleotide, ligand for TLR9 (DNA GGGGGAGCATGCTGCGGGGG; listed as DNA, chemistry not given here)” it was “failed to restore the proliferation of naive CD4^+ T cells”; in that of flagellin, “failed to restore the proliferation of naive CD4^+ T cells”; in that of poly(I:C), “failed to restore the proliferation of naive CD4^+ T cells”.

In another data set the test system is CD4+ Treg cells (Treg102, Treg164). The data set is described as follows: Proliferation assay without DCs: Treg suppression of naive CD4+ T cell proliferation, anti-CD3-coated plates. Format: cell-based, human. To be noted: absence of DCs; anti-CD3-coated plates; oligonucleotides 3 ug/ml in medium. An excerpt:
Establishing Treg cell lines and purifying natural CD4^+ CD25^+ Treg cells CD4^+ Treg clones were established from CD4^+ tumor-infiltrating lymphocytes (TIL102 and TIL164) and maintained in RPMI 1640 medium containing 10% human AB serum and recombinant IL-2 (300 IU/ml) using methods well known in the art (See, e.g., H. Y. Wang et al., Immunity 20, 107-118 (2004)). Treg clones derived from TIL102 or TIL164 cells were pooled and designated Treg102 or Treg164. Naturally occurring CD4^+ CD25^+ Treg cells were obtained by sorting CD4^+ T cell populations from fresh PBMCs after staining with anti-CD4 and anti-CD25 antibodies. To obtain optimal expansion, the OKT3 expansion method was performed using methods well known in the art (See, e.g., H. Y. Wang et al., Immunity 20, 107-118 (2004)). T cell clones were maintained at a low IL-2 concentration (300 IU/ml). Melanoma cell lines and EBV-transformed B-cell lines used in this study were cultured in RPMI 1640 medium containing 10% FCS. Human embryonic kidney (HEK) 293 and Epstein-Barr virus (EBV)-transformed B cell lines were maintained in RPMI 1640 with 10% fetal calf serum (FCS).
B. Proliferation assay without DCs: 1×10^5 näive CD4 T cells were cultured with regulatory T cells at different ratios (1: 0.2, 1:0.1 and 1:0.05) in anti-CD3 mAb-coated (2 ug/ml) 96-well plates in the presence or absence of the following TLR ligands or cytokines: CpG-A (3 ug/ml), CpG-B (3 ug/ml), LPS (100 ng/ml), TNF.-α (20 ng/ml), IFN-α (100 ng/ml), or IL-6 (100 ng/ml). After 56 h of culture, [3H]thymidine was added at a final concentration of 1 uCi/well, followed by an additional 16 h of culture. The incorporation of [^3H]thymidine was measured with a liquid scintillation counter.
Näive CD4^+ T cell proliferation experiments were performed similar to those in FIG. 1A, but in the absence of DCs. […] The reversal effect of CpG-A (SEQ ID NO: 1) contrasts with the failure of CpG-B (SEQ ID NO: 2), LPS, TNF-α, IL-6 or IFN-α to block the suppressive activity of CD4^+ Treg cells against naive CD4^+ T cells (FIG. 1B).
To further define the CpG-A (SEQ ID NO: 1) sequences responsible for the observed reversal effect, CpG-NG (SEQ ID NO: 5) and Poly-G10 (SEQ ID NO: 6), were tested for their ability to reverse the suppressive function of Treg cells. Naive CD4^+ T cells were mixed with CD4^+ Treg cells in anti-CD3 antibody-coated 96-wells with 200 μl of medium containing CpG-NG (SEQ ID NO: 5), CpG-A (SEQ ID NO: 1) or Poly-G10 (SEQ ID NO: 6). The proliferation assay was conducted as described in FIG. 1. […] For the experiments shown in FIG. 2B, naive CD4^+ T cells were mixed with CD4^+ Treg cells in anti-CD3 antibody-coated 96-wells with 200 μl of medium containing Poly-A10 (SEQ ID NO: 7), Poly-T10 (SEQ ID NO: 9) or Poly-C10 (SEQ ID NO: 8), while the Poly-G10 (SEQ ID NO: 6) oligonucleotides served as a positive control.
A series of oligonucleotides with decreasing numbers of guanosine nucleosides was constructed to determine the minimal number required for the reversal effect. For the experiments in FIG. 2C, CD4^+ T cells were mixed with CD4^+ Treg cells in anti-CD3 antibody-coated 96-wells containing medium with protected phosphorothioate linked guanosine nucleoside containing oligonucleotides of various lengths, while the unprotected five guanosines (SEQ ID NO: 10) served as a control.
“A4G1: a single guanosine plus other nucleotides with protected phosphorothioate linkages (DNA dA*dA*dG*dA*dA)”: the “reversal of Treg cell-mediated suppression of naive CD4+ T cell proliferation” value (from here on “reversal … of naive CD4+ T cell proliferation”) is listed as “found to reverse the suppressive activity of Treg cells”.
For “C4G1: a single guanosine plus other nucleotides with protected phosphorothioate linkages (DNA dC*dC*dG*dC*dC)”, the “reversal … of naive CD4+ T cell proliferation” value is given as “found to reverse the suppressive activity of Treg cells”.
For “CpG-B: CpG-B oligonucleotide, ligand for TLR9 (DNA GGGGGAGCATGCTGCGGGGG; listed as DNA, chemistry not given here)”, the “reversal … of naive CD4+ T cell proliferation” value is recorded as “failure”.
For “CpG-NG: oligonucleotide derived from CpG-A, tested to define the sequences responsible for reversal (DNA AAAAGACGATCGTCAAAAAA; listed as DNA, chemistry not given here)”, the “reversal … of naive CD4+ T cell proliferation” value is recorded as “Treg suppression reversal was lost”.
The same measure, in the same setting: in the case of “G5: unprotected five guanosines with a regular phosphodiester backbone (DNA GGGGG; unmodified DNA)” it was “failed to reverse the suppressive activity of Treg cells”; in that of “Poly-A10: Poly-A oligonucleotide with the same protected phosphorothioate backbone (DNA dA*dA*dA*dA*dA*dA*dA*dA*dA*dA)”, “failed to reverse the suppressive function of Treg cells; also recorded: lacked the ability to reverse the suppressive activity of Treg cells”; in that of “Poly-C10: Poly-C oligonucleotide with the same protected phosphorothioate backbone (DNA dC*dC*dC*dC*dC*dC*dC*dC*dC*dC)”, “failed to reverse the suppressive function of Treg cells; also recorded: lacked the ability to reverse the suppressive activity of Treg cells”.
As to “T4G1: a single guanosine plus other nucleotides with protected phosphorothioate linkages (DNA dT*dT*dG*dT*dT)”, the “reversal … of naive CD4+ T cell proliferation” value was “found to reverse the suppressive activity of Treg cells”.
Same read-out and setting: in the case of TNF-α it was “failure”.

The values are drawn from patent US20090209620A1, “Direct Reversal Of The Suppressive Function Of CD4+Regulatory T Cells Via Toll-Like Receptor 8 Signaling” (priority 2005, published 2009).
